Assay results: patent US7811352B2, “Fertilizer compositions and methods of using” (priority 2005, dated 2010)

Columns and labels:
[1] = test system: total soil bacteria and fungi; test: Soil microbial population (plate count) after fertilizer application to Kentucky bluegrass turf (Example 8); conditions: 1.0 lb N/1000 ft^2; 24, 48 and 72 hours after application
Description: In this Example, the effect on various embodiments of the fertilizer composition on soil microbial population (bacterial and fungal) was examined. The Example compared the effect on total microbial populations 24, 48 and 72 hours after application of the fertilizer to a Kentucky bluegrass turf.
The following fertilizer compositions were used: urea, dry lysine (lysine (HCl), LIQUID LYSINE brand aqueous lysine solution (available from Archer-Daniels-Midland Company, Decatur, Ill.), a threonine cell mass, a lysine cell mass, and soy/lysine combination (a granular mixture of dry lysine and soy flour, soy flakes and soybean oil. Analysis of the threonine cell mass is presented in Table 5. The effect of the fertilizer compositions on microbial population were compared with a control plot to which no fertilizer composition was applied. The dry lysine was dissolved in water and applied by spraying on the turf plot. The fertilizer compositions were applied at a rate of 1.0 lb N/1000 ft^2 of Kentucky bluegrass turf Soil samples from the turf were analyzed for total soil bacteria and fungi by standard plate count and dilution series.

[2] = test system: ultra-dwarf Bermuda grass; test: Turfgrass quality and color ratings, ultra-dwarf Bermuda grass greens (Example 11); assay type: in vivo; design: key: 1-10 scale: 10 = dark green, 6 = initially acceptable, 1 = dead/brown; conditions: scale 1-10
Text: In this Example, the effect of a fertilizer comprising lysine on warm season turfgrass growth was examined. The effects of lysine (HCl) and LIQUID LYSINE on a common type of golf course greens quality turfgrass (ultra-dwarf Bermuda grass) were compared with those of urea and Milorganite.
Twelve fertilizer treatments comprising three concentrations of each fertilizer composition (Milorganite (N—P—K, 6-2-0), urea (N—P—K, 46-0-0), LIQUID LYSINE (N—P—K, 10-2-1), and lysine (HCl) (N—P—K, 15-2-1)) were prepared and applied to 3 replications of ultra-dwarf Bermuda grass. The lysine (HCl) was dissolved in water prior to application. Each fertilizer treatment was applied in concentrations of 0.125 lb N/1000 ft^2/week, 0.25 lb N/1000 ft^2/week and 0.75 lb N/1000 ft^2/week. The urea, LIQUID LYSINE and lysine (HCl) were applied as foliar liquids, while Milorganite was applied as a granular fertilizer. Plot size was 1 m×1 m set up as a randomized complete block. Plots were mowed at 0.125 inches before fertilizer application. Irrigation (0.15 inch) was applied following application. Plots were rated for turfgrass quality and color (scale of 1-10 where 10=dark green turf, 1=dead/brown turf, and 6=initially acceptable turf) and phytotoxicity (scale of 0-5, where 5=worst, and 2=minimally objectionable) throughout the study period. Quality, color, and phytotoxicity were measured on 2 days before application (day −2) and day 2, day 5, day 15 and day 21 after application. All data was subject to statistical analysis and significant means were determined. Average turfgrass quality ratings for the treatments are presented in Table 12 and the quality results for application rates of 0.25 lb N/1000 ft^2/week are graphically presented in FIG. 6.

[3] = test system: Moonlight Kentucky bluegrass; test: Turfgrass quality rating, Kentucky bluegrass lawn (Example 17); assay type: in vivo
Text: In this Example, the effect of a fertilizer comprising lysine on cool season lawn variety turfgrass growth was examined. The effects of lysine (HCl) and LIQUID LYSINE on a common variety of law turfgrass (Moonlight Kentucky bluegrass) were compared with those of urea, Milorganite and a blended fertilizer (a blend of methylene urea and urea in an approximately 1:1 ratio).
Fifteen fertilizer treatments comprising three concentrations of each fertilizer composition (Milorganite N—P—K, 6-2-0), urea (N—P—K, 46-0-0), a blended fertilizer, LIQUID LYSINE (N—P—K, 10-2-1), and lysine (HCl) (N—P—K, 15-2-1)) were prepared and applied to 3 replications of newly established “Moonlight” variety Kentucky bluegrass lawn turfgrass. The urea, lysine (HCl), and LIQUID LYSINE were dissolved/suspended in 1.5 gal water prior to application. […], […], The urea, LIQUID LYSINE and lysine (HCl) were applied as foliar liquids, while Milorganite and the blended fertilizer were applied as granular fertilizers. Plot size was 4 ft×8 ft laid out in a replicated complete block design. Plots were mowed at 2.0 inches before fertilizer application and mowed two times per week to 2.0 inch height. Grass clippings were not removed from the plots and no supplemental cultural maintenance or pest management was applied. Irrigation (0.15 inch) was applied following application and thereafter only when necessary to insure survival of the turf. Plots were rated for turfgrass quality (scale of 1-9 where 9=dark green turf, 1=dead/brown turf, and 6=minimally acceptable turf) and phytotoxic injury (scale of 0-9 where 9=significant foliar injury and 2=minimally objectionable foliar injury) throughout the study period. Quality was measured prior to application (day 0) and day 37, day 70 and day 95 after application. Injury was measured on day 37 and day 70 after application. In addition, blade density of the grass was measured on day 70 after application (scale of 1-9, where 9=very dense turf, 1=low density turf). All data was subject to statistical analysis and significant means were determined.

[4] = Weekly Rate 0.125 lbs N/1000 ft^2, Day 2
[5] = Weekly Rate 0.125 lbs N/1000 ft^2, Day 5
[6] = Weekly Rate 0.125 lbs N/1000 ft^2, Day 15
[7] = Weekly Rate 0.125 lbs N/1000 ft^2, Day 21
[8] = Weekly Rate 0.125 lbs N/1000 ft^2, Day −2 (before application)
[9] = Weekly Rate 0.25 lbs N/1000 ft^2, Day 2
[10] = Weekly Rate 0.25 lbs N/1000 ft^2, Day 5
[11] = Weekly Rate 0.25 lbs N/1000 ft^2, Day 15
[12] = Weekly Rate 0.25 lbs N/1000 ft^2, Day 21
[13] = Weekly Rate 0.25 lbs N/1000 ft^2, Day −2 (before application)
[14] = Weekly Rate 0.75 lbs N/1000 ft^2, Day 2
[15] = Weekly Rate 0.75 lbs N/1000 ft^2, Day 5
[16] = Weekly Rate 0.75 lbs N/1000 ft^2, Day 15
[17] = Weekly Rate 0.75 lbs N/1000 ft^2, Day 21
[18] = Weekly Rate 0.75 lbs N/1000 ft^2, Day −2 (before application)
[19] = Weekly Rate 0.5 lbs N/1000 ft^2, Day 0
[20] = Weekly Rate 0.5 lbs N/1000 ft^2, Day 37
[21] = Weekly Rate 0.5 lbs N/1000 ft^2, Day 70
[22] = Weekly Rate 0.5 lbs N/1000 ft^2, Day 95
[23] = Weekly Rate 1.0 lbs N/1000 ft^2, Day 0
[24] = Weekly Rate 1.0 lbs N/1000 ft^2, Day 37
[25] = Weekly Rate 1.0 lbs N/1000 ft^2, Day 70
[26] = Weekly Rate 1.0 lbs N/1000 ft^2, Day 95
[27] = Weekly Rate 3.0 lbs N/1000 ft^2, Day 0
[28] = Weekly Rate 3.0 lbs N/1000 ft^2, Day 37
[29] = Weekly Rate 3.0 lbs N/1000 ft^2, Day 70
[30] = Weekly Rate 3.0 lbs N/1000 ft^2, Day 95

NC(N)=O [Urea, urea, reference compound]
soil microbial populations compared with controls [1]: did not significantly differ | Color Rating - Dwarf Bermuda Grass [2, 4]: 7.7ab | Quality Ratings - Dwarf Bermuda Grass [2, 4]: 7.7abc | Color Rating - Dwarf Bermuda Grass [2, 5]: 7.7ab | Quality Ratings - Dwarf Bermuda Grass [2, 5]: 7.5bc | Color Rating - Dwarf Bermuda Grass [2, 6]: 7.2bcd | Quality Ratings - Dwarf Bermuda Grass [2, 6]: 7.0bcd | Color Rating - Dwarf Bermuda Grass [2, 7]: 6.8bc | Quality Ratings - Dwarf Bermuda Grass [2, 7]: 6.7abc | Color Rating - Dwarf Bermuda Grass [2, 8]: 7.0 | Quality Ratings - Dwarf Bermuda Grass [2, 8]: 6.5 | Color Rating - Dwarf Bermuda Grass [2, 9]: 7.7ab | Quality Ratings - Dwarf Bermuda Grass [2, 9]: 7.7abc | Color Rating - Dwarf Bermuda Grass [2, 10]: 7.3abc | Quality Ratings - Dwarf Bermuda Grass [2, 10]: 7.5bc | Color Rating - Dwarf Bermuda Grass [2, 11]: 7.3bc | Quality Ratings - Dwarf Bermuda Grass [2, 11]: 7.0bcd | Color Rating - Dwarf Bermuda Grass [2, 12]: 7.3ab | Quality Ratings - Dwarf Bermuda Grass [2, 12]: 6.8abc | Color Rating - Dwarf Bermuda Grass [2, 13]: 6.7 | Quality Ratings - Dwarf Bermuda Grass [2, 13]: 6.3 | Color Rating - Dwarf Bermuda Grass [2, 14]: 7.8a | Quality Ratings - Dwarf Bermuda Grass [2, 14]: 8.2a | Color Rating - Dwarf Bermuda Grass [2, 15]: 7.8a | Quality Ratings - Dwarf Bermuda Grass [2, 15]: 8.3a | Color Rating - Dwarf Bermuda Grass [2, 16]: 8.0a | Quality Ratings - Dwarf Bermuda Grass [2, 16]: 7.5ab | Color Rating - Dwarf Bermuda Grass [2, 17]: 7.8a | Quality Ratings - Dwarf Bermuda Grass [2, 17]: 7.3a | Color Rating - Dwarf Bermuda Grass [2, 18]: 6.8 | Quality Ratings - Dwarf Bermuda Grass [2, 18]: 6.3 | Quality Rating - Kentucky Bluegrass [3, 19]: 4.7de | Quality Rating - Kentucky Bluegrass [3, 20]: 6.0b | Quality Rating - Kentucky Bluegrass [3, 21]: 4.3cd | Quality Rating - Kentucky Bluegrass [3, 22]: 4.3ab | Quality Rating - Kentucky Bluegrass [3, 23]: 5.0cde | Quality Rating - Kentucky Bluegrass [3, 24]: 7.7a | Quality Rating - Kentucky Bluegrass [3, 25]: 5.3bc | Quality Rating - Kentucky Bluegrass [3, 26]: 6.3a | Quality Rating - Kentucky Bluegrass [3, 27]: 6.3ab | Quality Rating - Kentucky Bluegrass [3, 28]: 8.0a | Quality Rating - Kentucky Bluegrass [3, 29]: 6.7a | Quality Rating - Kentucky Bluegrass [3, 30]: 4.3ab

Cl.NCCCC[C@H](N)C(=O)O [Lys (HCl) 15% N, L-lysine monohydrochloride]
soil microbial populations compared with controls [1]: did not significantly differ | Color Rating - Dwarf Bermuda Grass [2, 4]: 7.2bc | Quality Ratings - Dwarf Bermuda Grass [2, 4]: 7.3bcd | Color Rating - Dwarf Bermuda Grass [2, 5]: 7.0cd | Quality Ratings - Dwarf Bermuda Grass [2, 5]: 6.7de | Color Rating - Dwarf Bermuda Grass [2, 6]: 6.8c-f | Quality Ratings - Dwarf Bermuda Grass [2, 6]: 6.3ef | Color Rating - Dwarf Bermuda Grass [2, 7]: 6.5cd | Quality Ratings - Dwarf Bermuda Grass [2, 7]: 6.2cd | Color Rating - Dwarf Bermuda Grass [2, 8]: 6.8 | Quality Ratings - Dwarf Bermuda Grass [2, 8]: 6.8 | Color Rating - Dwarf Bermuda Grass [2, 9]: 7.2bc | Quality Ratings - Dwarf Bermuda Grass [2, 9]: 7.2cd | Color Rating - Dwarf Bermuda Grass [2, 10]: 7.2bcd | Quality Ratings - Dwarf Bermuda Grass [2, 10]: 7.2cd | Color Rating - Dwarf Bermuda Grass [2, 11]: 7.2bcd | Quality Ratings - Dwarf Bermuda Grass [2, 11]: 7.2abc | Color Rating - Dwarf Bermuda Grass [2, 12]: 7.3ab | Quality Ratings - Dwarf Bermuda Grass [2, 12]: 7.2ab | Color Rating - Dwarf Bermuda Grass [2, 13]: 7.0 | Quality Ratings - Dwarf Bermuda Grass [2, 13]: 6.5 | Color Rating - Dwarf Bermuda Grass [2, 14]: 7.3abc | Quality Ratings - Dwarf Bermuda Grass [2, 14]: 7.5abc | Color Rating - Dwarf Bermuda Grass [2, 15]: 7.2bcd | Quality Ratings - Dwarf Bermuda Grass [2, 15]: 7.5bc | Color Rating - Dwarf Bermuda Grass [2, 16]: 7.7ab | Quality Ratings - Dwarf Bermuda Grass [2, 16]: 7.3abc | Color Rating - Dwarf Bermuda Grass [2, 17]: 7.2b | Quality Ratings - Dwarf Bermuda Grass [2, 17]: 6.8abc | Color Rating - Dwarf Bermuda Grass [2, 18]: 6.7 | Quality Ratings - Dwarf Bermuda Grass [2, 18]: 6.5 | Quality Rating - Kentucky Bluegrass [3, 19]: 5.0cde | Quality Rating - Kentucky Bluegrass [3, 20]: 5.3b | Quality Rating - Kentucky Bluegrass [3, 21]: 4.3cd | Quality Rating - Kentucky Bluegrass [3, 22]: 5.7ab | Quality Rating - Kentucky Bluegrass [3, 23]: 5.3bcd | Quality Rating - Kentucky Bluegrass [3, 24]: 7.3a | Quality Rating - Kentucky Bluegrass [3, 25]: 6.0ab | Quality Rating - Kentucky Bluegrass [3, 26]: 6.0a | Quality Rating - Kentucky Bluegrass [3, 27]: 6.3ab | Quality Rating - Kentucky Bluegrass [3, 28]: 8.0a | Quality Rating - Kentucky Bluegrass [3, 29]: 6.7a | Quality Rating - Kentucky Bluegrass [3, 30]: 5.7ab
